Measured values from patent publication US20220395467A1, “THERAPEUTIC PROTEIN-BASED NANOPARTICLES AND METHODS FOR MAKING THE SAME” (THE REGENTS OF THE UNIVERSITY OF MICHIGAN, priority 2019, published 2022).

Tested on: B16F10-OVA melanoma
Assay: Therapeutic efficacy in murine model of B16F10-OVA melanoma
Type: in vivo, C57BL/6 mice
Experimental: FIGS. 9A-9B. FIGS. 9A-9B show therapeutic effect of OVA pNPs. In FIG. 9A, a vaccine doses and regimen for a murine model is shown. […] C57BL/6 mice are inoculated subcutaneously with 1×10^5 B 16F10-OVA cells on day 0. On days 7 and 14, mice are treated with indicated formulations (OVA pNP, soluble OVA, PBS) containing 10 μg/dose OVA and 15 μg/dose CpG (100 μL dose). Data represent mean±SEM (n=10). Groups are compared using Kaplan-Meier estimator analysis. P<0.05 is considered statistically different (*P<0.05). P>0.05 is considered not significant.
Therapeutic efficacy of pNPs in a model of melanoma. Encouraged by the fact that OVA pNPs with 10% PEG/OVA ratio result in increased OT-I CD8+ cell proliferation in vitro, improved uptake by APCs (both in vitro and in vivo), and enhanced humoral immune response in vivo, a murine model of B16F10-OVA melanoma was employed to evaluate the therapeutic efficacy of pNPs with a PEG/OVA ratio of 10% compared to solute OVA. […] Following the regimen shown in FIG. 9A, C57BL/6 mice (10 mice/treatment group) were inoculated with 1×10^5 B16F10-OVA cells in the SC flank on day 0. […] A second treatment was given on day 14. Mice were euthanized after their tumors reached 15 mm in any dimension. […] More than 50% of mice treated with solute OVA were euthanized due to large tumor burden on day 20, and 100% of the mice were euthanized on day 21.

[1] = treated days 7 and 14, 10 μg OVA + 15 μg CpG, n=10

Ovalbumin [soluble OVA, soluble ovalbumin antigen used as control]
animal survival (solute OVA vs no treatment control, pNPs until endpoint day 24): slightly better survival | mice euthanized due to large tumor burden on day 20 [1]: More than 50% | mice euthanized on day 21 [1]: 100%
